Results as given in patent US20230372273A1, “IONIC LIQUID COMPOSITIONS FOR SKIN DISEASES AND CONDITIONS” (CAGE BIO, INC., priority 2020, published 2023).

Experiments:
[1] = cited from earlier work
Recombinant human KLK5 = biological target: T1, Recombinant human KLK5 (Homo sapiens, UniProt Q9Y337); test: hKLK5 enzymatic assay; type: biochemical; details: substrate S-2288, OD 405 nm, 37° C.; read-out: IC50 against hKLK5
T1 construct: purchased Speed Biosystems LLC YS1485
T1 sequence (Q9Y337 23-293): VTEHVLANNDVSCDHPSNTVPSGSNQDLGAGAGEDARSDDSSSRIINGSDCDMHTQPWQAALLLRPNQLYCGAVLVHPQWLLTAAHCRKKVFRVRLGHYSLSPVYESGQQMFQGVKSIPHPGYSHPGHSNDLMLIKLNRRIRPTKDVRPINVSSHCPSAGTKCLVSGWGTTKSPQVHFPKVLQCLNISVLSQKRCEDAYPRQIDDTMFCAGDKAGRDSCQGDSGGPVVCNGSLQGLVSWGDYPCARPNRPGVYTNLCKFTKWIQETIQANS
Method: hKLK5 Enzymatic Assay. Test compound CAGE1:2 (87.07% w/v) was diluted to 0.99 mM and control compound Aprotinin was prepared at 6 μM in di-water. A 2-fold serial dilution was then performed in di-water to generate 10 concentrations for CAGE1:2 (87.07% w/v) and 8 concentrations for Aprotinin which were 2× of the final concentrations in the reaction. Recombinant human KLK5 was purchased from Speed Biosystems LLC (Catalog No. YS1485, Lot No. 0330517, 17.2 μM). The substrate S-2288 was purchased from Diapharma Group, Inc (Catalog No. S820852, Lot No. N0889942).
The assay was carried out in 384-well clear bottom plate coated with 0.1% Tween 20 at 4° C. overnight and washed twice with di-water before usage. 50 μL 2× compound in water was mixed with 25 μL 4× hKLK5 enzyme (120 nM) prepared in 2× reaction buffer (100 mM Tris, pH 8.0, 200 mM NaCl, 0.2% PEG, 0.01% Tween 20, 2 mM EDTA). The enzymatic reaction was initiated by the addition of 25 μL 4× substrate S-2288 (2 mM) in 2× reaction buffer to all wells. OD 405 nm was measured every 30 seconds by SpetraMax 384 Plus at 37° C. for 1 hour.

[2] = Human cadaver skin permeation (Franz cells); type: in vitro ADME
Method: Human cadaver skin permeation evaluation. Dermatomed full thickness human cadaver skin samples, 250-350 μm, were mounted onto static Franz cells. […] Phosphate buffered saline (PBS), pH 7.4 was used as the receptor medium. CGB400 gel was applied to the stratum corneum side of the skin samples at a dose of 15 μL/cm^2 ( 15 mg/cm^2). The cells were kept in a chamber at 37 C for a period of 24 h. […] in the receptor chamber ensured that the receptor media was well mixed during this time. The receptor media was sampled at 4, 7, and 24 hours to quantify the amount of choline and geranic acid permeation. After 24 hours, the skin surface was washed before removing the stratum corneum (SC) by tape stripping. […] Following SC removal, the epidermis was separated from the dermis using a surgical sterile scalpel and the dermis was cut into pieces. Each layer was collected separately in glass vials containing 2 mL of 50:50 water:methanol mixture and was left to shake overnight to extract the choline and geranic acid. The amount of choline and geranic acid was measured using LC-MS/MS in the wash, epidermis, dermis, and the receptor medium.

[3] = test system: Propionibacterium acnes clinical isolates

Compound | Log P [1] | IC50 (Recombinant human KLK5) [mM] | applied dose penetrated into the dermis [2] | estimated epidermal CAGE concentration [2] [mM] | molar ratio of choline to geranic acid in the epidermis [2] | effective concentration for antibacterial activity [3] [mM] | Minimum Inhibitory Concentration (MIC) ([3]; P. acnes isolates, 48 hours)
CC(C)=CCC/C(C)=C/C(=O)O [geranic acid, 3,7-dimethyl-2,6-octadienoic acid] | 2.8 |  |  |  |  |  | 
Choline geranate [CAGE1:2] |  | ~30 | About 9.5% | ~76 | 1.18 | < 0.45 | 0.025-0.2 % of neat CAGE1:2
